Read-outs that look alike come from different tables or passages of the source.

Experiment [1] concerns cucumber anthracnose pathogen (Colletotrichum lagenarium). The experiment in a line: Fungicidal test for cucumber anthracnose (microplate, turbidity at 405 nm). In kind it is cell-based. The settings on record: for inhibition at 0.025 ppm / inhibition at 0.1 ppm / inhibition at 0.4 ppm: Colletotrichum orbiculare, read-out: growth inhibition rate.
For experiment [2], the system named is wheat leaf blight pathogen (Septoria tritici). The experiment in a line: Fungicidal test for wheat leaf blight (microplate, turbidity at 405 nm). In kind it is cell-based. The settings on record: for inhibition at 6.3 ppm / inhibition at 12.5 ppm / inhibition at 25 ppm / inhibition at 50 ppm / inhibition at 100 ppm: Zymoseptoria tritici, component (I) alone, read-out: growth inhibition rate; for growth inhibition rate: component (II) alone. The method, then: Compounds of component (I) and component (II) were dissolved in dimethyl sulfoxide at 10,000 ppm and diluted with water to the prescribed concentration to prepare a chemical agent solution. A mixture of the prescribed concentration of the chemical agent solution, wheat leaf blight pathogen (Septoria tritici) conidia, and malt extract was prepared on a microplate and incubated at 20° C. in the dark for 3 days. The turbidity at a wavelength of 405 nm was measured with a microplate reader, and the growth of wheat leaf blight pathogen was compared with that of no treatment control to determine the growth inhibition rate. The results are shown in Tables 2 to 7, along with the expected values calculated as below.
Each expected value was calculated from the fungicidal efficacy of a single application of the compound of component (I) and the fungicidal efficacy of a single application of compound of component (II) by using Colby's equation (S. R. Colby, Calculating synergistic and antagonistic responses of herbicide combinations, Weeds, 15, 20-22 pp (1967)).
[formula] • where E represents the expected value of the growth inhibition rate (%) for the composition containing component (I) and component (II), M represents the growth inhibition rate (%) when the component (I) is used alone, and N represents the growth inhibition rate (%) when the component (II) is used alone. When the measured growth inhibition rate (%) for the composition containing component (I) and component (II) is greater than the expected value E, the composition containing components (I) and component (II) should exert a synergistic effect.

For experiment [3], the system named is soybean rust pathogen (Phakopsora pachyrhizi). Kind of experiment: Soybean rust control test (leaf discs). The format is in vivo.
[4] abbreviates: component (I) alone, 0.0063 ppm.

Regarding `CCON=C1CN(C(=O)C(OC)c2ccc(-c3noc(C(F)(F)F)n3)cc2)C1` (stereo not shown) [Compound 5], in experiment [1] (Compound 5 alone), the inhibition at 0.025 ppm was 4%, the inhibition at 0.1 ppm worked out at 76% and the inhibition at 0.4 ppm was 90%. In experiment [2], the inhibition at 6.3 ppm was 61%, the inhibition at 12.5 ppm was determined as 68%, the inhibition at 25 ppm amounted to 68% and the inhibition at 50 ppm was 64%. Also, the inhibition at 100 ppm in experiment [2] turned out to be 72%. Besides, the control value in experiment [3] (setting [4]) was 7%. For the same compound, the control value in experiment [3] (component (I) alone, 0.025 ppm) came to 18%. Moreover, in experiment [3] (component (I) alone, 0.1 ppm), the control value stood at 46%. In experiment [3] (component (I) alone, 0.4 ppm), the control value is given as 90%.
On to `COc1ccnc(C(=O)N[C@@H](C)C(=O)O[C@@H](C)C(c2ccc(F)cc2)c2ccc(F)cc2)c1OC(C)=O` [Florylpicoxamid, florylpicoxamid, reference compound], for which the growth inhibition rate in experiment [1] (Table 19, component (II) alone (component (I): None): Ipflufenoquin 0.000026, Iminoctadine trialbesilate 0.0032, Cyflufenamid 10, Cyprodinil 0.00013, Potassium bicarbonate 0.08, Thiophanate-methyl 0.08, Picarbutrazox 0.016, Fludioxonil 0.0032, Florylpicoxamid 0.0032, Metyltetraprole 0.08, Mefentrifluconazole 0.4 ppm) stood at 0%; in experiment [1] (Table 20, component (II) alone (component (I): None): Ipflufenoquin 0.00064, Iminoctadine trialbesilate 0.0032, Cyflufenamid 10, Cyprodinil 0.00013, Potassium bicarbonate 0.08, Thiophanate-methyl 0.4, Picarbutrazox 0.016, Fludioxonil 0.0032, Florylpicoxamid 0.0032, Metyltetraprole 0.08, Mefentrifluconazole 0.4 ppm), 0%; in experiment [1] (Table 21, component (II) alone (component (I): None): Ipflufenoquin 0.00064, Iminoctadine trialbesilate 0.0032, Cyflufenamid 10, Cyprodinil 0.00013, Potassium bicarbonate 0.08, Thiophanate-methyl 0.4, Picarbutrazox 0.00064, Fludioxonil 0.0032, Florylpicoxamid 0.0032, Metyltetraprole 0.08, Mefentrifluconazole 0.4 ppm), 0%; in experiment [1] (Table 22, component (II) alone (component (I): None): Ipflufenoquin 0.00064, Iminoctadine trialbesilate 0.0032, Cyflufenamid 10, Cyprodinil 0.00013, Potassium bicarbonate 0.08, Thiophanate-methyl 0.4, Picarbutrazox 0.00064, Fludioxonil 0.0032, Florylpicoxamid 0.0032, Metyltetraprole 0.08, Mefentrifluconazole 0.4 ppm), 0%; in experiment [1] (Table 23, component (II) alone (component (I): None): Ipflufenoquin 0.00064, Iminoctadine trialbesilate 0.0032, Cyflufenamid 10, Cyprodinil 0.000026, Potassium bicarbonate 0.08, Thiophanate-methyl 0.4, Picarbutrazox 0.00064, Fludioxonil 0.00064, Florylpicoxamid 0.0032, Metyltetraprole 0.08, Mefentrifluconazole 0.4 ppm) it was 0%; in experiment [1] (Table 24, component (II) alone (component (I): None): Ipflufenoquin 0.00064, Iminoctadine trialbesilate 0.0032, Cyflufenamid 10, Cyprodinil 0.00013, Potassium bicarbonate 0.08, Thiophanate-methyl 0.4, Picarbutrazox 0.00064, Fludioxonil 0.00013, Florylpicoxamid 0.0032, Metyltetraprole 0.08, Mefentrifluconazole 0.4 ppm) it was 0%. Further, the growth inhibition rate is reported as 80% in experiment [2] (0.001 ppm) and 70% in experiment [2] (.0002 ppm (also printed 0002)). Besides, the control value was 27% in experiment [3] (Table 14, component (II) alone (component (I): None): Inpyrfluxam 0.00025, Chlorothalonil 0.006, Thiophanate-methyl 0.0001, Tebuconazole 0.000025, Trifloxystrobin 0.0001, Fluazinam 0.006, Prothioconazole 0.000025, Florylpicoxamid 0.0001, Metominostrobin 0.0004 ppm); 0% in experiment [3] (Table 15, component (II) alone (component (I): None): Azoxystrobin 0.0001, Inpyrfluxam 0.000025, Chlorothalonil 0.0063, Difenoconazole 0.000025, Cyproconazole 0.000025, Tebuconazole 0.000025, Trifloxystrobin 0.0001, Pyraclostrobin 0.0001, Fluazinam 0.0063, Fluxapyroxad 0.000025, Prothioconazole 0.000025, Florylpicoxamid 0.0001, Benzovindiflupyr 0.000025, Mancozeb 0.0063 ppm); 27% in experiment [3] (Table 16, component (II) alone (component (I): None): Inpyrfluxam 0.000025, Chlorothalonil 0.006, Thiophanate-methyl 0.0001, Tebuconazole 0.000025, Trifloxystrobin 0.0001, Fluazinam 0.006, Prothioconazole 0.000025, Florylpicoxamid 0.0001, Metominostrobin 0.0004 ppm); 27% in experiment [3] (Table 17, component (II) alone (component (I): None): Inpyrfluxam 0.000026, Chlorothalonil 0.02, Thiophanate-methyl 0.0004, Tebuconazole 0.0001, Trifloxystrobin 0.0001, Fluazinam 0.006, Prothioconazole 0.000025, Florylpicoxamid 0.0001, Metominostrobin 0.0004 ppm); 0% in experiment [3] (Table 18, component (II) alone (component (I): None): Azoxystrobin 0.0001, Inpyrfluxam 0.000025, Chlorothalonil 0.0063, Difenoconazole 0.000025, Cyproconazole 0.000025, Tebuconazole 0.000025, Trifloxystrobin 0.0001, Pyraclostrobin 0.0001, Fluazinam 0.0063, Fluxapyroxad 0.000025, Prothioconazole 0.000025, Florylpicoxamid 0.0001, Benzovindiflupyr 0.000025, Mancozeb 0.0063 ppm).
With `N#CCON=C1CN(C(=O)Cc2ccc(-c3noc(C(F)(F)F)n3)cc2)C1` [Compound 3], in experiment [1] (Compound 3 alone), the inhibition at 0.025 ppm turned out to be 26%, the inhibition at 0.1 ppm came out at 9% and the inhibition at 0.4 ppm turned out to be 84%. Besides, in experiment [2], the inhibition at 6.3 ppm amounted to 32%, the inhibition at 12.5 ppm turned out to be 41%, the inhibition at 25 ppm came out at 42% and the inhibition at 50 ppm is 44%. In addition, in experiment [2], the inhibition at 100 ppm was found to be 49%. Moreover, the control value in experiment [3] (setting [4]) is 12%. Moreover, the control value in experiment [3] (component (I) alone, 0.025 ppm) came to 22%. In addition, the control value in experiment [3] (component (I) alone, 0.1 ppm) is recorded as 35%. In experiment [3] (component (I) alone, 0.4 ppm), the control value came to 85%.
As to `CCON=C1CN(C(=O)C(C)c2ccc(-c3noc(C(F)(F)F)n3)cc2)C1` (stereo not shown) [Compound 6], in experiment [1] (Compound 6 alone), the inhibition at 0.025 ppm amounted to 32%, the inhibition at 0.1 ppm turned out to be 67% and the inhibition at 0.4 ppm is 86%. In addition, in experiment [2], the inhibition at 6.3 ppm is 47%, the inhibition at 12.5 ppm came out at 58%, the inhibition at 25 ppm is 63% and the inhibition at 50 ppm worked out at 64%. In addition, in experiment [2], the inhibition at 100 ppm is 69%. In addition, the control value in experiment [3] (setting [4]) is reported as 19%. Besides, in experiment [3] (component (I) alone, 0.025 ppm), the control value was 49%. Further, in experiment [3] (component (I) alone, 0.1 ppm), the control value is given as 76%. Besides, the control value in experiment [3] (component (I) alone, 0.4 ppm) amounted to 98%.

Broadly, the inhibition is the share of the control response that was lost under treatment.

The record behind these values is patent US20240268388A1, “AGRICULTURAL AND HORTICULTURAL FUNGICIDAL COMPOSITION” (NIPPON SODA CO., LTD., priority 2021, published 2024).
